Experimental data taken from patent US8779779B2, “On-chip cell migration detection” (CapitalBio Corporation, priority 2008, dated 2014).

Tested on: Vero-E6 cells
Assay: Real time inhibition assay of cell migration (on-chip SAM wound edge with cellular impedance sensing)
Assay type: cell-based
Experimental: For at least one of the electrodes, the surface is treated with a chemical coating that inhibits cell adhesion onto the electrode (302). This generates a chemical coat-modified surface on the electrodes. The chemical coating maintains contact with the surface of the electrodes until desorbed by application of an electrical signal capable of desorbing the coating. The chemical coating can be applied by contacting the electrodes with a solution or suspension of coating material in a carrier, or by contacting the electrode with the coating material without a carrier. A background impedance value is measured in absence of cells (304). After measuring the background impedance (Z0), target cells are added to the device (306). A layer of cells is allowed to grow on the surface of the device (308). […] As a result, all the cells grow on the surface of the SiO2 insulation substrate forming a cell monolayer. After incubation, wound edges are formed automatically on the device. Once the cells have grown over the surfaces, an electrical signal is applied to the electrodes, which causes the chemical coating to desorb from the electrodes (310). This provides a cell-free electrode surface surrounded by cells growing on the adjacent insulation. The cell impedance (Zx) is monitored in real-time as the cells grow or migrate across the electrodes (312). Cells growing on the electrodes can cause measurable changes in the electrical properties of the circuit, e.g., impedance; consequently, the rate of cell migration or spreading can be monitored by monitoring electrical properties of the electrodes. The final impedance data is normalized as Zx/Z0 (314). The normalized impedance data reflects the impedance variation induced by the attachment of the cells.
For illustrative purposes, the process 300 is described using an example protocol for monitoring cell migration. An example protocol includes preparing an impedance measuring device (e.g., device 100) for impedance measurement by sterilizing the device. After sterilization, (e.g., in 75% ethanol for 20 minutes and then exposure to UV irradiation for another 30 minutes), a thiol compound is added to the microfluidic cavities. Thiol compound (HS(CH2)11(OCH2CH2)6OH (abbreviated as “EG6”) is obtained from Sigma-Aldrich (St. Louis, Mo.). EG6 (1.5 mM in ethanol) can be added to each microfluidic cavity of the device using a syringe and incubated for 8 hours at room temperature. Then, the microfluidic cavities are washed by ethanol followed by PBS buffer. Before cell seeding, tissue culture media is injected into chambers of the device to read the background impedance value (Z0). […]
At the same time, the impedance (Zx) is measured in real-time with a time resolution of 5 minutes, for example. […]

COc1cc2c(c(OC)c1OC)-c1ccc(OC)c(=O)cc1[C@@H](NC(C)=O)CC2 [colchicine]
time point at which the cells heal a wound (t0.1; impedance saturation) (0.1 μM colchicine, Vero-E6 cells, control tc=4.2±0.17 h): 4.6 ± 0.19 h
time point at which the cells heal a wound (t0.2; impedance saturation) (0.2 μM colchicine, Vero-E6 cells, control tc=4.2±0.17 h): 5.1 ± 0.21 h
time point at which the cells heal a wound (t0.4; impedance saturation) (0.4 μM colchicine, Vero-E6 cells, control tc=4.2±0.17 h): 8.2 ± 0.42 h
inhibition effect on Vero-E6 cell migration (average speed AS) (0.1, 0.2 and 0.4 μM, AS=R×t^−1, FIG. 7B): inhibits Vero-E6 cell migration in a drug concentration dependant manner
